Here are results for seven molecules from ChEMBL document CHEMBL4130508, “Structural Sequencing of Oligopeptides Aided by 1H Iterative Full-Spin Analysis” (2017).

Each structure is given as a SMILES string. Values after ≈ are worked out from the molar mass of the structure shown. Numbered stars: 1 amine (or outer) side, 2 acyl side, 3 side chain; on linkers, the order of the positions; unused ones are H or OH. Bridge positions count the residues as written; N and C are the ends. Square brackets hold non-standard residues; d marks the D form. Peptide text beside a SMILES is read from it. * marks the point of attachment. Phe(3R-OH) = O=C([C@@H](N[*:1])[C@H](O[*:3])c1ccccc1)[*:2]; NMeTrp(4-OMe) = CN[C@@H](Cc1c[nH]c2cccc(OC)c12)C(=O)O; NMeaIle = CC[C@@H](C)[C@H](NC)C(=O)O; NMe2Val = CC(C)[C@@H](C(=O)*)N(C)C; NMeT = CN[C@H](C(=O)O)[C@@H](C)O; NMeL = CN[C@@H](CC(C)C)C(=O)O; NMeV = CN[C@H](C(=O)O)C(C)C

The test system of the experiment is Mycobacterium tuberculosis. Description: Antimycobacterial activity against Mycobacterium tuberculosis H37Rv ATCC 27294 by Alamar blue assay. Type of experiment: functional.
In the case of `CC[C@@H](C)[C@@H](C(=O)N[C@@H]1C(=O)N(C)[C@@H]([C@@H](C)O)C(=O)N[C@@H]([C@@H](C)CC)C(=O)N(C)[C@@H](CC(C)C)C(=O)N[C@@H](C(C)C)C(=O)N(C)[C@@H](C(C)C)C(=O)N(C)[C@@H](Cc2c[nH]c3cccc(OC)c23)C(=O)N[C@@H](C(C)C)C(=O)N[C@@H]([C@H](O)c2ccccc2)C(=O)N[C@@H](C(C)C)C(=O)O[C@@H]1C)N(C)C(=O)[C@@H](NC(=O)[C@H](C(C)C)N(C)C)C(C)C`, inhibition of growth (MIC) required 0.26 µg/mL (≈ 0.161 µM).

For `CC[C@@H](C)[C@@H](C(=O)N[C@@H]1C(=O)N(C)[C@@H]([C@@H](C)O)C(=O)N[C@@H](C(C)C)C(=O)N(C)[C@@H](CC(C)C)C(=O)N[C@@H](C(C)C)C(=O)N(C)[C@@H](C(C)C)C(=O)N(C)[C@@H](Cc2c[nH]c3cccc(OC)c23)C(=O)N[C@@H](C(C)C)C(=O)N[C@@H]([C@H](O)c2ccccc2)C(=O)N[C@@H]([C@@H](C)CC)C(=O)O[C@@H]1C)N(C)C(=O)[C@@H](NC(=O)[C@H](C(C)C)N(C)C)C(C)C`, inhibition of growth (MIC) required 0.26 µg/mL (≈ 0.161 µM).

Turning to `COc1cccc2[nH]cc(C[C@H]3C(=O)N[C@@H](C(C)C)C(=O)N[C@@H](Cc4ccccc4)C(=O)N[C@@H](C(C)C)C(=O)O[C@H](C)[C@H](NC(=O)[C@H](C(C)C)N(C)C(=O)[C@@H](NC(=O)[C@H](C(C)C)N(C)C)C(C)C)C(=O)N(C)[C@@H]([C@@H](C)O)C(=O)N[C@@H](C(C)C)C(=O)N(C)[C@@H](CC(C)C)C(=O)N[C@@H](C(C)C)C(=O)N(C)[C@@H](C(C)C)C(=O)N3C)c12` (NMe2Val-V[NMeV]T[NMeT]V[NMeL]V[NMeV][NMeTrp(4-OMe)]VFV; ester 3-C), the MIC (usually the least concentration at which growth counts as inhibited) was found to be 0.13 µg/mL (≈ 0.0828 µM).

For `CC[C@@H](C)[C@@H](C(=O)N[C@@H]1C(=O)N(C)[C@@H]([C@@H](C)O)C(=O)N[C@@H](C(C)C)C(=O)N(C)[C@@H](CC(C)C)C(=O)N[C@@H](C(C)C)C(=O)N(C)[C@@H](C(C)C)C(=O)N(C)[C@@H](Cc2c[nH]c3cccc(OC)c23)C(=O)N[C@@H](C(C)C)C(=O)N[C@@H]([C@H](O)c2ccccc2)C(=O)N[C@@H](C(C)C)C(=O)O[C@@H]1C)N(C)C(=O)[C@@H](NC(=O)[C@H](C(C)C)N(C)C)C(C)C` (NMe2Val-V[NMeaIle]T[NMeT]V[NMeL]V[NMeV][NMeTrp(4-OMe)]V[Phe(3R-OH)]V; ester 3-C), the lowest concentration to inhibit growth (MIC) was 0.26 µg/mL (≈ 0.162 µM).

Turning to `CC[C@@H](C)[C@@H](C(=O)N[C@@H]1C(=O)N(C)[C@@H]([C@@H](C)O)C(=O)N[C@@H](C(C)C)C(=O)N(C)[C@@H](CC(C)C)C(=O)N[C@@H](C(C)C)C(=O)N(C)[C@@H](C(C)C)C(=O)N(C)[C@@H](Cc2c[nH]c3cccc(OC)c23)C(=O)N[C@@H](C(C)C)C(=O)N[C@@H](Cc2ccccc2)C(=O)N[C@@H](C(C)C)C(=O)O[C@@H]1C)N(C)C(=O)[C@@H](NC(=O)[C@H](C(C)C)N(C)C)C(C)C`, the MIC amounted to 0.55 µg/mL (≈ 0.347 µM).

`CC[C@@H](C)[C@@H](C(=O)N[C@@H]1C(=O)N(C)[C@@H]([C@@H](C)O)C(=O)N[C@@H](C(C)C)C(=O)N(C)[C@@H](CC(C)C)C(=O)N[C@@H](C(C)C)C(=O)N(C)[C@@H](C(C)C)C(=O)N(C)[C@@H](Cc2c[nH]c3cccc(OC)c23)C(=O)N[C@@H]([C@@H](C)CC)C(=O)N[C@@H]([C@H](O)c2ccccc2)C(=O)N[C@@H](C(C)C)C(=O)O[C@@H]1C)N(C)C(=O)[C@@H](NC(=O)[C@H](C(C)C)N(C)C)C(C)C`: inhibition of growth (MIC) required 0.26 µg/mL (≈ 0.161 µM).

`COc1cccc2[nH]cc(C[C@H]3C(=O)N[C@@H](C(C)C)C(=O)N[C@@H]([C@H](O)c4ccccc4)C(=O)N[C@@H](C(C)C)C(=O)O[C@H](C)[C@H](NC(=O)[C@H](C(C)C)N(C)C(=O)[C@@H](NC(=O)[C@H](C(C)C)N(C)C)C(C)C)C(=O)N(C)[C@@H]([C@@H](C)O)C(=O)N[C@@H](C(C)C)C(=O)N(C)[C@@H](CC(C)C)C(=O)N[C@@H](C(C)C)C(=O)N(C)[C@@H](C(C)C)C(=O)N3C)c12` (NMe2Val-V[NMeV]T[NMeT]V[NMeL]V[NMeV][NMeTrp(4-OMe)]V[Phe(3R-OH)]V; ester 3-C): inhibition of growth (MIC) required 0.15 µg/mL (≈ 0.0946 µM).
